Measured values as given in patent US6174888A, “2-amino-7-(1-substituted-2-hydroxyethyl)-3,5-dihydropyrrolo[3,2-D]pyrimidin -4-ones” (Novartis AG, priority 1998, dated 2001).

Tests used:
PNP = PNP inhibition in vivo: increased plasma level of inosine in mice; conditions: 10 mg/Kg p.o.
Protocol: Briefly, mice are treated orally with the PNP inhibitor suspended in fortified cornstarch (3% cornstarch suspension in water with 0.33% Tween 80 and 5% PEG 400) at a final volume of 10 ml/kg. One or more hours after a single oral dose of compound, the mice are bled by cardiac puncture into 25 U/ml heparin to obtain plasma. The samples are analyzed for both inosine and drug levels by a gradient reverse-phase high performance liquid chromatography (HPLC) method (see Anal Chem, 1977, 49:2237-41). Quantitation is performed using an internal standard method with 2',3'-dideoxyinosine (DDI) as the internal standard.

Calf spleen PNP = target: T1, Calf spleen PNP (Bos taurus, UniProt P55859); experiment: PNP inhibition in vitro, colorimetric enzymic determination of inorganic phosphate (PNP and xanthine oxidase, substrate inosine); type: biochemical; conditions: 1 mM phosphate concentration
T1 construct: Calf spleen PNP is used as the enzyme source; from tissue; host or cells: calf spleen
T1 sequence (P55859 1-289): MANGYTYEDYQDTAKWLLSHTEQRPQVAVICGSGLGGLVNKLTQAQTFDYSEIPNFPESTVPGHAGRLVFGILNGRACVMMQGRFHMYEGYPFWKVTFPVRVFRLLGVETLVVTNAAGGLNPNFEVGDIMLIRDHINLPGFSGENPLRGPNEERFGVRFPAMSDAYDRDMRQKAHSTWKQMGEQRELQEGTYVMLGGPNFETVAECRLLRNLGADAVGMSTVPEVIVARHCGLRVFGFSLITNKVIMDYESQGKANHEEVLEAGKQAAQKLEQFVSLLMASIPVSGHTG
Protocol: PNP inhibition can also be determined in vitro as follows: An enzymic method for the determination of inorganic phosphate (see Chem. Pharm. Bull., 1981, 29:1451-5), based on the principle of forming hydrogen peroxide with purine nucleoside phosphorylase (PNP) and xanthine oxidase, is used to colorimetrically measure the degree of linkage between enzyme and substrate (inosine). Calf spleen PNP is used as the enzyme source. The IC50 values for the compounds studied are determined graphically at two phosphate concentrations (1 and 50 mM) from a plot of percent inhibition versus compound concentration.

Human CCRF-CEM cells = experiment: potentiation of the cell growth inhibitory activity (cytotoxicity) of 2'-deoxyguanosine, CCRF-CEM cell assay; type: cell-based; conditions: d-Guo 10 μM, increase in cell number between 0 and 72 hours
Protocol: The selective suppression of spontaneous T-cell proliferation in vitro is measured by the potentiation of the cell growth inhibitory activity (cytotoxicity) of 2'-deoxyguanosine (d-Guo) by the compounds of the invention, determined as follows: Human CCRF-CEM cells are grown in RPMI-1640 medium. To suspension cultures of these cells, d-Guo at a fixed concentration (10 μM) and the candidate PNP inhibitor at varied concentrations are added and the number of cells are determined in a Coulter counter 24, 48, and 72 hours thereafter. […] This method is similar to that previously used to determine the effectiveness of PNP inhibitors on potentiation of the toxicity of d-Guo. [See D. A. Shewach et al., Cancer Res., 46, 519 (1986); J. C. Sircar et al., Agents and Actions, 21, 253 (1987), also Methods in Pharmacology, D. M. Paten, ed. 1985, pp. 147-162].

[1] = system: collagen II induced arthritis; experiment: collagen II induced arthritis in mice model; type: in vivo, mice (DBA/1LacJ); conditions: 20 mg/Kg/day, oral
Protocol: The antiarthritic activity can be determined in the collagen II induced arthritis in mice model. DBA/1LacJ female mice, 6-8 weeks old, are immunized with 100 μg of chicken type II collagen emulsified in Freund's complete adjuvant (FCA) by injecting at the base of the tail on day 0. On day 17 after collagen injection, the immune response to type II collagen is boosted with a subcutaneous injection of 200 μg LPS solubilized in PBS. Paws are examined on days 17, 21, 24, 28, 31, 35, and 42 and scored for the symptoms of arthritis based on criteria such as inflammation, swelling and ankylosis. Compounds are suspended in corn starch vehicle and administered orally to mice once daily beginning on day 1 and continuing through day 42.

transplant rejection = experiment: mouse tail skin transplant rejection model; type: in vivo, mouse (C57BL/10-SnJ and B10.BR/SgSnJ)
Excerpt: Protection against transplant rejection can be determined in a mouse tail skin transplantation procedure.
Mice are anesthetized with tribromoethanol i.p. injection according to the method of Papaioannou and Fox (Lab. Animal Science 1993;43:189-92). The mouse tail skin transplant rejection model is a modification of that described by Baily and Usama, (Transpl. Bull. 1960;7:424-5). Four skin grafts per mouse are exchanged between strains [C57BL/10-SnJ (H-2K^b) and B10.BR/SgSnJ (H-2K^k)] at surgery (d0). Fitted skin grafts are made with a scalpel, and tail graft sites are protected with tubing for 2 days following surgery. Mouse tails are evaluated at day 7 for missing grafts. Only those graft sites that have patent grafts at day 7 are evaluated at later scoring intervals. Grafts are scored numerically for signs of rejection at ~weekly scoring intervals starting day 14. Dose-group mean graft scores are compared statistically.

Row | Compound | increase in the plasma level of inosine (PNP) | IC50 (Calf spleen PNP) [µM] | IC50 (Human CCRF-CEM cells) [µM] | antiarthritic activity [1] | protection against transplant rejection (transplant rejection; 50 mg/Kg/day, mouse) | effect of combination with cyclosporin in the transplant rejection model (transplant rejection; combination of a compound of the invention, e.g. of example 1, and cyclosporin)
1 | Nc1nc2c([C@@H](CO)c3ccccc3)c[nH]c2c(=O)[nH]1 [3(f), 2-Amino-7-(2(S)-hydroxy-1-phenylethyl)-3,5-dihydro-4H-pyrrolo[3,2-d]-pyrimidin-4-one] | significant increase | ~0.01 | ~0.1 |  |  | 
2 | Nc1nc2c([C@@H](CO)c3ccccc3F)c[nH]c2c(=O)[nH]1 [Example 1, 2-amino-7-[1-(2-flourophenyl)-2(R)-hydroxyethyl]-3,5-dihydro-4H-pyrrolo[3,2-d]pyrimidin-4-one] | significant increase | ~0.01 | ~0.075 | effective | effective in protecting against transplant rejection | superior to either cyclosporin or the PNP inhibitor alone
